# Source: patent US11254671B2, “Chemical compounds” (GLAXOSMITHKLINE INTELLECTUAL PROPERTY DEVELOPMENT LIMITED, priority 2017, dated 2022)
# Where “and” joins values, the source holds several entries; their conditions need not be identical. Equal entries are not always repeated.
# Key:
# mTOR = biological target: T1, mTOR (Homo sapiens, UniProt P42345); assay: mTOR kinobeads assay (competition-binding assay); conditions: HuT-78 cell extract, endogenously expressed mTOR, bead-immobilized capturing ligand; mean of multiple experiments; read-out: mean pIC50, affinity for mTOR (converted)
# T1 construct: capturing of endogenously expressed target proteins from cell extracts by a bead-immobilized capturing ligand; endogenous in cells; host or cells: HuT-78 cells (ECACC 88041901), cell lysate
# Procedure: The affinity of test compounds for mTOR was determined in the mTOR kinobeads assay. This is a competition-binding assay based on the capturing of endogenously expressed target proteins from cell extracts by a bead-immobilized capturing ligand in presence of the test compound.
# HuT-78 cells (European Collection of Authenticated Cell Cultures, 88041901) were cultured according to vendor's instructions. Frozen cell pellets were homogenized in 3× pellet volumes lysis buffer (50 mM Tris-HCl, 0.4% (v/v) Igepal-CA630, 5% glycerol, 150 mM NaCl, 1.5 mMMgCl2, 25 mM NaF, 1 mM sodium vanadate, 1 mM DTT, pH 7.5, supplemented with EDTA-free protease inhibitor tablet (Roche)). The sample was dispersed using a Dounce homogenizer, kept rotating for 30 min at 4° C., and centrifuged for 10 min at 20 000 g at 4° C. The supernatant was centrifuged again for 1 h at 145 000 g. The protein concentration was determined by Bradford assay (BioRad), aliquots were snap frozen in liquid nitrogen and stored at −80° C.
# The capturing matrices were generated by derivatizing N-hydroxysuccinimide (NHS) activated Sepharose 4 beads (GE Healthcare) with the functionalized ligands Compound A and Compound C at a ligand density of 5 mM. Remaining NHS-groups were blocked with ethanolamine.
# For the mTOR kinobeads assay the matrices were combined in a 1:1 ratio and equilibrated in DP buffer (50 mM Tris-HCl (pH 7.5), 0.4% (v/v) Igepal-CA630, 5% (v/v) glycerol, 150 mM NaCl, 1.5 mM MgCl2, 25 mM NaF, 1 mM Na3VO4, 1 mM dithiothreitol). All steps of the mTOR kinobeads assay were performed at 4° C. or on ice. The cell lysate was diluted with DP buffer to a final concentration of 5 mg/ml and a final detergent concentration of 0.4% (v/v) Igepal-CA630. For the assay 250 μg cell lysate and 2.5 μl capturing matrix per well (final assay volume: 75 μl) were incubated in the presence of test compounds in a 384-well filter plate (MultiScreenHTS HV Filter Plate, 0.45 μm, MZHVNOW50, Merck Millipore). Each plate contained 16 positive (100 μM Compound B) and 16 negative (2% v/v DMSO) control wells. Compounds were tested in a concentration-response applying 1:3 or 1:4 dilution steps for in total 11 data points. DMSO concentration was 2% (v/v). After 2 h incubation on an overhead shaker (Roto-Shake Genie, Scientific Industries Inc.) at 4° C. the non-bound fraction was removed by washing the beads with DP buffer. Proteins retained on the beads were eluted in SDS sample buffer (200 mM Tris (pH 7.4), 250 mM Trizma Base, 4% (w/v) SDS, 20% (v/v) glycerol, 0.01% (w/v) bromophenol blue, 50 mM dithiothreitol) into a collection plate (384 well polypropylene microplate, V-shape, Greiner, 781 280). Eluates were spotted on nitrocellulose membranes (400 nl per spot) using an automated pin-tool liquid transfer (Biomek FX, Beckman). After drying, the membranes were rehydrated in 20% (v/v) ethanol and blocked by incubation with Odyssey blocking buffer (LICOR, 927-40000) for 1 h at room temperature. Blocked membranes were incubated overnight at 25° C. with Odyssey blocking buffer supplemented with a specific anti-mTOR antibody (Cell Signaling, 2972; 1:500) and 0.4% TWEEN-20. Then the membranes were washed in PBST buffer and incubated for 60 minutes at room temperature with the detection antibody (IRDye™ labelled antibody from LI-COR) diluted in Odyssey blocking buffer (LICOR 927-40000) containing 0.2% TWEEN-20. Then the membranes were washed with PBST and finally rinsed twice with PBS buffer to remove residual Tween-20. The membranes were then scanned with the Odyssey® Infrared Imaging System (LI-COR Biosciences). Fluorescence signals were recorded and analyzed according to the instructions of the manufacturer. Concentration response curves were computed with the software Activity Base. All data were normalized to the mean of 16 high (negative control) and 16 low (positive control) control wells on each plate. […]
# [1] = system: phosphorylated Akt at serine 473 (pAKTs473) in primary human lung fibroblasts; assay: Highthroughput phosphorylated Akt (Ser473) in vitro immunoassay (MSD); assay type: cell-based; conditions: Fibroblast, 1 h compound, PDGF-BB 10 ng/ml for 10 min, mean of multiple experiments, read-out: mean pIC50, inhibition of pAkt (Ser473) (converted)
# Text: Highthroughput Phosphorylated Akt (Ser473) In Vitro Immunoassay
# Immunoassay to measure effect of test compounds on phosphorylated Akt at serine 473 (pAKTs473) in primary human lung fibroblasts (Lonza Group Ltd, Basel, Switzerland, Catalogue No. CC-2512) using the MesoScale Discovery (MSD) platform to quantify levels of total Akt and pAKTser473.
# Human lung fibroblasts were routinely maintained in fibroblast basal medium supplemented with 2% foetal bovine serum (FBS), 0.1% human fibroblast growth factor (FGF)-B, 0.1% insulin, 0.1% GA-100 (Lonza Group Ltd, Basel, Switzerland, Catalogue No. CC-3132) at 37° C. in 5% CO2 according to the manufacturer's protocol.
# For the assay, cells were harvested using Trypsin/EDTA, (Lonza Group Ltd, Basel, Switzerland, Catalogue No. CC-5012), at working concentration of 0.025%, resuspended to give 3×10^5 cells/ml and 50 ul/well seeded into 384-well plates (Greiner Group, Kremsmunster, Austria, Catalogue No. 781091) in media containing 0.4% FBS and incubated o/n at 37° C. in 5% CO2.
# Test compounds were dissolved in 100% DMSO to give 10 mM stock solutions and serially diluted to generate an 11-point concentration response curve. Compound were further diluted by […] into 384-well V-bottom polypropylene plates (Greiner Group, Kremsmunster, Austria, Catalogue No. 781280) with media containing 0.4% FBS to give 50 μM top compound concentration in 0.5% DMSO.
# Compounds were transferred to 384-well plates contacting cells (0.1% DMSO final) and incubated for 1 h at 37° C. in 5% CO2, prior to stimulation with platelet-derived growth factor (PDGF)-BB (R&D Systems, Catalogue No. 220-BB) at 10 ng/ml (final) for 10 min at RT. Cell assay plates were incubated on ice and treated with lysis buffer (Cell Signalling Technology, Catalogue No. 9806) containing protease and phosphatase inhibitors (Thermo Scientific, Catalogue No. 78444) followed by shaking for 30 min at 4° C.
# MSD plates (MSD, MA6000 384-well GAR plate, Catalogue No. L21RA-2) were blocked with blocking buffer containing TBS (MSD, Cat. No. R61TX-1) with 0.5% bovine serum albumin (BSA) (Sigma Aldrich, Cat. No. A7906), 0.1% tween-20 (Sigma Aldrich, Catalogue No. P2287) and coated with rabbit-anti-human pAkt (s473) ab (Cell Signalling Technology, Catalogue No. CST #4060) at RT with shaking, followed by washing (×3) with 1×TBS wash reagent containing 0.1% Tween-20. Cell lysates (30 ul) were added and MSD plates centrifuged at 1000 rpm at 4° C. o/n.
# Plates were washed with 1×TBS wash buffer (×3), prior to addition of mouse-anti-human-total Akt ab (1 mg/ml) (Upstate (Milipore), Catalogue No. 05-591) in blocking buffer and shaken at RT for 1 h. After washing with 1×TBS wash buffer (×3), plates were incubated with goat-anti-mouse SULFO-TAG detection ab (MSD, Catalogue No. R32AC-1) (1:500 in blocking buffer) for 1 h at RT. Plates were washed with 1×TBS (×3) and read buffer (2×) (MSD, Catalogue No. R92TC-1) added before detecting electrochemiluminescence (MSD Sector Imager 6000).
# Data analysis was performed by determining % inhibition values for test compounds relative to the minimum (+PDGF-BB stimulation) and maximum responses (no PDGF-BB stimulation) with non-linear regression analysis to determine IC50 values for test compounds.
Compound,IC50 (mTOR),IC50 [1] [nM]
"CNCc1cc2nc(-c3cc(CS(C)(=O)=O)cc(N4C5CCC4COC5)n3)ccc2[nH]1 [Example 47, ({5-[4-(methanesulfonylmethyl)-6-{3-oxa-8-azabicyclo[3.2.1]octan-8-yl}pyridin-2-yl]-1H-pyrrolo[3,2-b]pyridin-2-yl}methyl)(methyl)amine]",2.51 to 316 nM,3.16 to 316
"CC[C@H]1COCCN1c1cc(C2(S(C)(=O)=O)CCOCC2)cc(-c2ccc3[nH]c(CNC)cc3n2)n1 [Example 15, (S)-1-(5-(6-(3-ethylmorpholino)-4-(4-(methylsulfonyl)tetrahydro-2H-pyran-4-yl)pyridin-2-yl)-1H-pyrrolo[3,2-b]pyridin-2-yl)-N-methylmethanamine]",2.51 to 31.6 nM and 7.94 nM and 2.51 to 316 nM,2.51 to 10
"CC[C@H]1COCCN1c1cc(CS(N)(=O)=O)cc(-c2ccc3[nH]c(CNC)cc3n2)n1 [Example 29, {2-[(3S)-3-ethylmorpholin-4-yl]-6-{2-[(methylamino)methyl]-1H-pyrrolo[3,2-b]pyridin-5-yl}pyridin-4-yl}methanesulfonamide]",2.51 to 31.6 nM and 2.51 to 316 nM,3.16 to 316
"CC[C@H]1COCCN1c1cc(C(C)(C)S(C)(=O)=O)cc(-c2ccc3[nH]c(CNC)cc3n2)n1 [Example 1, [(5-{6-[(3S)-3-ethylmorpholin-4-yl]-4-(2-methanesulfonylpropan-2-yl)pyridin-2-yl}-1H-pyrrolo[3,2-b]pyridin-2-yl)methyl](methyl)amine]",2.51 to 31.6 nM and 15.8 nM and 2.51 to 316 nM,
"CC[C@H]1COCCN1c1cc(CS(C)(=O)=O)cc(-c2ccc3[nH]c(CN(C)CC)cc3n2)n1 [Example 14, (S)—N-((5-(6-(3-ethylmorpholino)-4-((methylsulfonyl)-methyl)pyridin-2-yl)-1H-pyrrolo[3,2-b]pyridin-2-yl)-methyl)-N-methylethanamine]",2.51 to 316 nM,3.16 to 316
"CC[C@H]1COCCN1c1cc(C2(S(C)(=O)=O)CCOCC2)cc(-c2ccc3[nH]c(CN(C)CC)cc3n2)n1 [Example 16, (S)—N-((5-(6-(3-ethylmorpholino)-4-(4-(methylsulfonyl)tetrahydro-2H-pyran-4-yl)pyridin-2-yl)-1H-pyrrolo[3,2-b]pyridin-2-yl)methyl)-N-methylethanamine]",2.51 to 316 nM,3.16 to 316
"CC[C@H]1COCCN1c1cc(C2(S(N)(=O)=O)CCOCC2)cc(-c2ccc3[nH]c(CNC)cc3n2)n1 [Example 27, 4-{2-[(3S)-3-ethylmorpholin-4-yl]-6-{2-[(methylamino)methyl]-1H-pyrrolo[3,2-b]pyridin-5-yl}pyridin-4-yl}oxane-4-sulfonamide]",,3.16 to 316
"CC[C@H]1COCCN1c1cc(C2(S(C)(=O)=O)CCNCC2)cc(-c2ccc3[nH]c(CNC)cc3n2)n1 [Example 24, [(5-{6-[(3S)-3-ethylmorpholin-4-yl]-4-(4-methanesulfonylpiperidin-4-yl)pyridin-2-yl}-1H-pyrrolo[3,2-b]pyridin-2-yl)methyl](methyl)amine]",2.51 to 31.6 nM and 2.51 to 316 nM,3.16 to 316
CC[C@H]1COCCN1c1cc(C2(S(C)(=O)=O)CCNCC2)cc(-c2ccc3[nH]c(CO)cc3n2)n1 [Example 36],2.51 to 31.6 nM and 2.51 to 316 nM,3.16 to 316

# Further lines, with some results ahead:
IC50 (mTOR),Compound,IC50 [1] [nM]
2.51 to 316 nM,"CNCc1cc2nc(-c3cc(CS(C)(=O)=O)cc(N4CCCOCC4)n3)ccc2[nH]1 [Example 45, ({5-[4-(methanesulfonylmethyl)-6-(1,4-oxazepan-4-yl)pyridin-2-yl]-1H-pyrrolo[3,2-b]pyridin-2-yl}methyl)(methyl)amine]",
2.51 to 316 nM,"CNCc1cc2nc(-c3cc(CS(C)(=O)=O)cc(N4CCOCC4)n3)ccc2[nH]1 [Example 46, ({5-[4-(methanesulfonylmethyl)-6-(morpholin-4-yl)pyridin-2-yl]-1H-pyrrolo[3,2-b]pyridin-2-yl}methyl)(methyl)amine]",
2.51 to 31.6 nM and 2.51 to 316 nM,"CNCc1cc2nc(-c3cc(C4(S(C)(=O)=O)CCOCC4)cc(N4CC5CCC(C4)O5)n3)ccc2[nH]1 [Example 37, ({5-[4-(4-methanesulfonyloxan-4-yl)-6-{8-oxa-3-azabicyclo[3.2.1]octan-3-yl}pyridin-2-yl]-1H-pyrrolo[3,2-b]pyridin-2-yl}methyl)(methyl)amine]",3.16 to 316
2.51 to 316 nM,"CC[C@H]1COCCN1c1cc(C2(S(C)(=O)=O)CCN(C(C)=O)CC2)cc(-c2ccc3[nH]c(CNC)cc3n2)n1 [Example 39, 1-(4-{2-[(3S)-3-ethylmorpholin-4-yl]-6-{2-[(methylamino)methyl]-1H-pyrrolo[3,2-b]pyridin-5-yl}pyridin-4-yl}-4-methanesulfonylpiperidin-1-yl)ethan-1-one]",
